Measured values: patent US12421253B2 (Mirati Therapeutics, Inc., priority 2020, dated 2025)
pIC50: −log10 of the molar value.

Assays:
KRas^G12V = biological target: T1, KRas^G12V (Homo sapiens, UniProt P01116, G12V); experiment: KRas binding assay (TR-FRET displacement of Cy5 labelled tracer)
T1 construct: […]; biotin (biotinylated); purchased Accelegan Inc

KRas^G12D = biological target: T2, KRas^G12D (Homo sapiens, UniProt P01116, G12D); experiment: as above
T2 construct: […]; biotin (biotinylated); purchased Accelegan Inc

MKN1 cells, pERK = experiment: Inhibition of KRas phosphorylation of ERK (Cisbio HTRF Advanced pERK assay); type: cell-based; conditions: Homo sapiens, MKN-1, 3 h, read-out: Inhibition (HTRF IC50 nM) of KRas-mediated Phosphorylation of ERK, MKN1
Procedure: (§1) Inhibition of KRas Phosphorylation of ERK (HTRF) by Exemplary Compounds of Formula (I)
(§2) Cisbio HTRF Advanced pERK Assay Catalog #64AERPEH
(§3) • Day 1: Seed 6,000 cells/well −25 μl/well in 384-well white solid bottom plate; RPM1_10% FBS. […] To harvest cells from flask using 0.05% Trypsin/EDTA solution. Add 10 mL of media to stop trypsinizing. Pipette the cells into a conical bottom 50 mL centrifuge tube and centrifuge 5 min×1000 rpm. • 2. Re-suspend the cell pellet in media, take a cell count, and then adjust the cell density using fresh media. • 3. Seed 6,000 cells into cell culture plate with […]. The • 4. Incubate cell plate overnight in a 37° C., 5% CO2 incubator. Compound Titrations • 1. Use Tecan to complete the compound addition. Compounds start from 10 uM top, 3-fold dilution, and 10 doses. The final DMSO concentration is 0.8%. Dispensed 0.2 uM Trametinib as Min control. • 2. Incubate cell plate for 3 hrs in the incubator. Detection with Cisbio pERK HTRF Kit • 1. Dilute 1 volume of 4× lysis buffer with 3 volumes of deionized water. Then, add 100× the blocking reagent. Keep lysis buffer on the ice. • 2. At the end of the compound treatment, flick-off the media. • 3. Add 35 μL of lysis buffer per well using a Multidrop Combi. Then place on a plate agitator shaking at 300 rpm at 4° C. for 40 mins. • 4. Make up the HTRF antibody buffer. For each assay plate, mix 50 μL of d2-conjugate antibody with 950 μL of detection buffer. Similarly, mix 50 μL of Cryptate antibody with 950 μL of detection buffer. Then mix the two diluted antibodies together. • 5. Dispense 3.4 μL the antibody buffer to wells of an empty assay plate. Seal the plate and centrifuge plate 30 sec×1000 rpm. • 6. At the end of the 4° C. lysis, centrifuge the lysate plates 3 mins×1500 rpm. • 7. Use the Bravo to transfer 13.6 μL of lysate from cell culture plate to assay plate. Then incubate assay plate for 2 hrs at room temperature. • 8. At the end of incubation, read plate on the Envision after centrifuging plate 30 sec×1000 rpm.

HCT116 cells, pERK = experiment: as above; type: cell-based; conditions: Homo sapiens, HCT-116, 3 hrs, read-out: Inhibition (HTRF IC50 nM) of KRas-mediated Phosphorylation of ERK, HCT116
Procedure: as §1, §2, §3

H727 cells, pERK = experiment: as above; type: cell-based; conditions: Homo sapiens, NCI-H727, 3 h, read-out: Inhibition (HTRF IC50 nM) of KRas-mediated Phosphorylation of ERK, H727
Procedure: as §1, §2, §3

PSN1 cells, pERK = experiment: as above; type: cell-based; conditions: Homo sapiens, PSN1, 3 h, read-out: Inhibition (HTRF IC50 nM) of KRas-mediated Phosphorylation of ERK, PSN1
Procedure: as §1, §2, §3

ASPC1 cells, pERK = experiment: as above; type: cell-based; conditions: Homo sapiens, ASPC1, 3 h, AsPC-1 cells, read-out: Inhibition (HTRF IC50 nM) of KRas-mediated Phosphorylation of ERK, AsPC-1
Procedure: as §1, §2, §3

KRas^G12R = biological target: T3, KRas^G12R (Homo sapiens, UniProt P01116, G12R); experiment: KRas binding assay (TR-FRET displacement of Cy5 labelled tracer)
T3 construct: […]; biotin (biotinylated); purchased Accelegan Inc
T3 sequence (P01116 1-169 isoform P01116-2 G12R): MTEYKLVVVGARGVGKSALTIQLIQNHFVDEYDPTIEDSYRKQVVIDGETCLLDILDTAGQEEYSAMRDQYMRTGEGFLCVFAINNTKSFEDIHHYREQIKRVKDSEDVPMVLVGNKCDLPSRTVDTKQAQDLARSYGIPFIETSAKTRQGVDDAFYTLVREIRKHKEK

T2 sequence (P01116 1-169 isoform P01116-2 G12D): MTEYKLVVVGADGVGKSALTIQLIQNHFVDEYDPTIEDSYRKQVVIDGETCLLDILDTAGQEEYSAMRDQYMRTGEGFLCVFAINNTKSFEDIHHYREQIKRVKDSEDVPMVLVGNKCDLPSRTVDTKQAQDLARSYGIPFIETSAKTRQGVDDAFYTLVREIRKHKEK
T1 sequence (P01116 1-169 isoform P01116-2 G12V): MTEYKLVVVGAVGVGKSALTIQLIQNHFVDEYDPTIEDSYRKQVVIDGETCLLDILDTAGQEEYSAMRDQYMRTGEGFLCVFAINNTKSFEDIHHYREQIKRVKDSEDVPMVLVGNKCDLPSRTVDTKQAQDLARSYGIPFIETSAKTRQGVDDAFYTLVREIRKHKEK

Compound | pIC50 (KRas^G12V) | pIC50 (KRas^G12D) | IC50 (MKN1 cells, pERK) [nM] | IC50 (HCT116 cells, pERK) [nM] | IC50 (H727 cells, pERK) [nM] | IC50 (PSN1 cells, pERK) [nM] | IC50 (ASPC1 cells, pERK) [nM] | pIC50 (KRas^G12R)
CC1(O)COCCN(c2nc(OC[C@@]34CCCN3C[C@H](F)C4)nc3c2CCN(c2cc(O)cc4ccc(F)c(Cl)c24)C3)C1 (stereo partly drawn) [Example 74, 4-(7-(8-chloro-7-fluoro-3-hydroxynaphthalen-1-yl)-2-(((2R,7aS)-2-fluorohexahydro-1H-pyrrolizin-7a-yl)methoxy)-5,6,7,8-tetrahydropyrido[3,4-d]pyrimidin-4-yl)-6-methyl-1,4-oxazepan-6-ol] | 8.52 | ≥ 8.70 | 78 | 1450 | 790 | 4050 | 253 | 8.40
Nc1cc2n(n1)CCCN(c1nc(OC[C@@]34CCCN3C[C@H](F)C4)nc3c1CCN(c1cc(O)cc4ccc(F)c(Cl)c14)C3)C2 [Example 75, 4-(4-(2-amino-7,8-dihydro-4H-pyrazolo[1,5-a][1,4]diazepin-5(6H)-yl)-2-(((2R,7aS)-2-fluorohexahydro-1H-pyrrolizin-7a-yl)methoxy)-5,6-dihydropyrido[3,4-d]pyrimidin-7(8H)-yl)-5-chloro-6-fluoronaphthalen-2-ol] | 8.52 | ≥ 8.70 | 128 | 2160 | 242 | ≥ 10000 | 128 | ≥ 8.70
O=C1CC2(CCCN(c3nc(OC[C@@]45CCCN4C[C@H](F)C5)nc4c3CCN(c3cc(O)cc5ccc(F)c(Cl)c35)C4)C2)N1 (stereo partly drawn) [Example 70, 6-(7-(8-chloro-7-fluoro-3-hydroxynaphthalen-1-yl)-2-(((2R,7aS)-2-fluorohexahydro-1H-pyrrolizin-7a-yl)methoxy)-5,6,7,8-tetrahydropyrido[3,4-d]pyrimidin-4-yl)-1,6-diazaspiro[3.5]nonan-2-one] | ≥ 8.70 | ≥ 8.70 | 40 | 1490 | 471 | 750 | 705 | ≥ 8.70
CCc1c(F)ccc2cc(O)cc(N3CCc4c(nc(OC[C@@]56CCCN5C[C@H](F)C6)nc4N4CCCC5(CC(O)C5)C4)C3)c12 (stereo partly drawn) [Example 60, 6-(7-(8-ethyl-7-fluoro-3-hydroxynaphthalen-1-yl)-2-(((2R,7aS)-2-fluorohexahydro-1H-pyrrolizin-7a-yl)methoxy)-5,6,7,8-tetrahydropyrido[3,4-d]pyrimidin-4-yl)-6-azaspiro[3.5]nonan-2-ol] | ≥ 8.70 | ≥ 8.70 | 29 | 1120 | 258 | 6610 | 556 | ≥ 8.70
CCc1c(F)ccc2cc(O)cc(N3CCc4c(nc(OC[C@@]56CCCN5C[C@H](F)C6)nc4N4CC5CC(O)C(C5)C4)C3)c12 (stereo partly drawn) [Example 63, 3-(7-(8-ethyl-7-fluoro-3-hydroxynaphthalen-1-yl)-2-(((2R,7aS)-2-fluorohexahydro-1H-pyrrolizin-7a-yl)methoxy)-5,6,7,8-tetrahydropyrido[3,4-d]pyrimidin-4-yl)-3-azabicyclo[3.2.1]octan-6-ol] | ≥ 8.70 | 8.10 | 33 | 1170 | 608 | 6960 | 457 | ≥ 8.70
Oc1cc(N2CCc3c(nc(OC[C@@]45CCCN4C[C@H](F)C5)nc3N3CC4CC(O)C(C4)C3)C2)c2c(Br)c(F)ccc2c1 (stereo partly drawn) [Example 215, 3-(7-(8-bromo-7-fluoro-3-hydroxynaphthalen-1-yl)-2-(((2R,7aS)-2-fluorohexahydro-1H-pyrrolizin-7a-yl)methoxy)-5,6,7,8-tetrahydropyrido[3,4-d]pyrimidin-4-yl)-3-azabicyclo[3.2.1]octan-6-ol] | 8.52 | 8.00 | 203 | – | 957 | 7580 | 1300 | 8.52
CCc1c(F)ccc2cc(O)cc(N3CCc4c(nc(OC[C@@]56CCCN5C[C@H](F)C6)nc4N4CCCc5nc(N)sc5C4)C3)c12 [Example 181, 4-(4-(2-amino-7,8-dihydro-4H-thiazolo[5,4-c]azepin-5(6H)-yl)-2-(((2R,7aS)-2-fluorohexahydro-1H-pyrrolizin-7a-yl)methoxy)-5,6-dihydropyrido[3,4-d]pyrimidin-7(8H)-yl)-5-ethyl-6-fluoronaphthalen-2-ol] | ≥ 8.70 | ≥ 8.70 | 90 | – | 191 | ≥ 10000 | 228 | ≥ 8.70
CCc1c(F)ccc2cc(O)cc(N3CCc4c(nc(OC[C@@]56CCCN5C[C@H](F)C6)nc4N4CCCn5nc(C(=O)N(C)C)c(Cl)c5C4)C3)c12 [Example 192, 3-chloro-5-(7-(8-ethyl-7-fluoro-3-hydroxynaphthalen-1-yl)-2-(((2R,7aS)-2-fluorotetrahydro-1H-pyrrolizin-7a(5H)-yl)methoxy)-5,6,7,8-tetrahydropyrido[3,4-d]pyrimidin-4-yl)-N,N-dimethyl-5,6,7,8-tetrahydro-4H-pyrazolo[1,5-a][1,4]diazepine-2-carboxamide] | ≥ 8.70 | ≥ 8.70 | 11 | – | 29 | ≥ 10000 | 24 | 8.52

Continued, values first:

pIC50 (KRas^G12V) | pIC50 (KRas^G12D) | IC50 (MKN1 cells, pERK) [nM] | IC50 (HCT116 cells, pERK) [nM] | IC50 (H727 cells, pERK) [nM] | IC50 (PSN1 cells, pERK) [nM] | IC50 (ASPC1 cells, pERK) [nM] | pIC50 (KRas^G12R) | Compound
8.52 | 8.40 | 145 | – | 1460 | ≥ 10000 | 1360 | 8.30 | Oc1cc(N2CCc3c(nc(OC[C@@]45CCCN4C[C@H](F)C5)nc3N3CCOCC(n4cccn4)C3)C2)c2c(Br)c(F)ccc2c1 (stereo partly drawn) [Example 221, 4-(4-(6-(1H-pyrazol-1-yl)-1,4-oxazepan-4-yl)-2-(((2R,7aS)-2-fluorotetrahydro-1H-pyrrolizin-7a(5H)-yl)methoxy)-5,8-dihydropyrido[3,4-d]pyrimidin-7(6H)-yl)-5-bromo-6-fluoronaphthalen-2-ol]
8.40 | 7.70 | 524 | – | 1300 | 7050 | 4050 | 8.22 | Oc1cc(N2CCc3c(nc(OC[C@@]45CCCN4C[C@H](F)C5)nc3N3CC4CC(O)C(C4)C3)C2)c2c(Cl)c(F)ccc2c1 (stereo partly drawn) [Example 227, 3-(7-(8-chloro-7-fluoro-3-hydroxynaphthalen-1-yl)-2-(((2R,7aS)-2-fluorohexahydro-1H-pyrrolizin-7a-yl)methoxy)-5,6,7,8-tetrahydropyrido[3,4-d]pyrimidin-4-yl)-3-azabicyclo[3.2.1]octan-6-ol]
8.52 | 8.30 | 112 | – | 1750 | ≥ 10000 | 1090 | 8.30 | Oc1cc(N2CCc3c(nc(OC[C@@]45CCCN4C[C@H](F)C5)nc3N3CCOCC(n4cccn4)C3)C2)c2c(Cl)c(F)ccc2c1 (stereo partly drawn) [Example 230, 4-(4-(6-(1H-pyrazol-1-yl)-1,4-oxazepan-4-yl)-2-(((2R,7aS)-2-fluorohexahydro-1H-pyrrolizin-7a-yl)methoxy)-5,6-dihydropyrido[3,4-d]pyrimidin-7(8H)-yl)-5-chloro-6-fluoronaphthalen-2-ol]
≥ 8.70 | ≥ 8.70 | 29 | – | 616 | 4100 | 668 | ≥ 8.70 | OCC1COCCN(c2nc(OC[C@@]34CCCN3C[C@H](F)C4)nc3c2CCN(c2cc(O)cc4ccc(F)c(Br)c24)C3)C1 (stereo partly drawn) [Example 220, 5-bromo-6-fluoro-4-(2-(((2R,7aS)-2-fluorohexahydro-1H-pyrrolizin-7a-yl)methoxy)-4-(6-(hydroxymethyl)-1,4-oxazepan-4-yl)-5,6-dihydropyrido[3,4-d]pyrimidin-7(8H)-yl)naphthalen-2-ol]
